What was measured:
KRAS S17A/K117A (AA) = biological target: T1, KRAS S17A/K117A (AA) (Homo sapiens, UniProt P01116, K117A/S17A); assay: Thermal shift assay, purified KRAS S17A/K117A (AA); assay type: binding
T1 construct: made in house
Description: Melting temperature (Tm) values of DMSO control and 15 μM KRA-533 are shown.
(§1) To further test this intracellularly, GFP-tagged WT, S17A, K117A and AA KRAS mutants were exogenously transfected into A549 cells. […] Activities of exogenous GFP-tagged WT and KRAS mutants were analyzed by Western blot using GFP antibody.

KRAS G12C = KRAS G12C (Homo sapiens, UniProt P01116, G12C); assay: Thermal shift assay, purified KRAS G12C; assay type: binding; settings: increasing concentrations
Description: Melting temperature (Tm) values of DMSO Ctrl and 15 μM of KRA-533 are shown.
To test whether KRA-533 directly binds to KRAS, a thermal shift assay was employed. […] To further assess whether KRA-533 activates KRAS directly, an in vitro cell-free GDP-GTP exchange experiment was carried out. Purified WT, G12C, G12D or G13D mutant KRAS proteins were incubated with purified GEF (RASGRP1) and GAP (RASA1) proteins in reaction buffer containing [γ-35S]-GTP in the absence or presence of increasing concentrations of KRA-533 at 25° C. for 60 min. KRAS activity was quantified by liquid scintillation counting. […] These findings indicate that KRA-533 not only activates WT KRAS but also has the capacity to further enhance KRAS activity of mutant KRAS.

[1] = test system: A549, H157, Calu-1 and H292 cells; assay: GFP-LC3 autophagosome quantification; assay type: cell-based, human; settings: 48 h
Description: After 24 h, cells were treated with KRA-533 for 48 h. The percentages of LC3-GFP-transfected cells bearing LC3-GFP aggregates (LC3-FGPvac) were quantified as shown.
(§2) Activated KRAS can trigger cell death via apoptosis and autophagy-associated cell death in cancer cells. To test whether KRA-533- activated KRAS promotes apoptosis and autophagic cell death, A549, H157, Calu-1 and H292 cells were treated with increasing concentrations of KRA-533 for 48 h, followed by analysis of KRAS activity, apoptosis and autophagy. […] Autophagy was measured by analysis of LC3-I/LC3-II and p62 following treatment of cells with KRA-533. It is well known that p62 is an autophagy receptor or substrate that can be degraded by autophagy. In addition to LC3-II, p62 was analyzed as another autophagy marker. […] To further quantify the level of autophagy, a GFP-LC3 construct was used to indicate autophagosomes. After treatment with KRA-533, GFP-LC3 redistributed from a diffuse staining pattern in the cytoplasm and nucleus to a cytoplasmic punctate structure that specifically labels pre-autophagosomal and autophagosomal membranes (i.e. GFP-LC3 vac cells). […] These findings indicate that, in addition to apoptosis, KRA-533 can also induce autophagic cell death.

NSCLC cells = assay: MTS Cell Proliferation Colorimetric Assay; assay type: cell-based, human; settings: 48 h
Text: (§3) A library containing small molecules from the National Cancer Institute (NCI) was employed to dock the GTP/GDP binding pocket of KRAS (PDB ID code: 4EPT) using the University of California, San Francisco (UCSF) DOCK 6.1 program suite. The small molecules were ranked according to their energy scores. Top 500 small molecules with predicted binding energies were selected for screening of cytotoxicity in human lung cancer cells by sulforhodamine B (SRB) assay. […] This lead compound was named KRAS agonist-533 (KRA-533) (FIG. 1A). To test whether KRA-533 regulates KRAS activity in lung cancer cells, human lung cancer cell lines with or without KRAS mutation were treated with KRA-533 (10 μM) for 48 h. […] Cell proliferation was also measured following treatment of cells for 48 h using MTS Cell Proliferation Colorimetric Assay Kit.

[2] = test system: A549 xenografts bearing mutant KRAS; assay: A549 lung cancer xenografts bearing KRAS mutation (G12S); assay type: in vivo
Description: Tumor volume was measured once every 2 days (left panel). Tumor volumes of 6 individual mice in each group were compared on day 28 (right panel). After 28 days, the mice were sacrificed, and the tumors were removed and analyzed.
Expression levels of active caspase-3, cleaved PARP, Beclin-1 and LC3-II in tumor tissues were analyzed by Western blot.
To test the potency of KRA-533 in vivo, lung cancer xenografts derived from A549 cells bearing KRAS mutation (G12S) were treated with increasing doses (0, 7.5, 15, and 30 mg/kg/day) of KRA-533 i.p. for 28 days. […] To assess whether KRA-533 induced suppression of tumor growth via apoptosis and autophagy in vivo, representative samples from harvested tumor tissues were analyzed by immunohistochemistry (IHC) for active caspase-3 or LC3-II.

KRAS S17A = biological target: T2, KRAS S17A (Homo sapiens, UniProt P01116, S17A); assay: In vitro cell-free GDP-GTP exchange, KRAS S17A; assay type: biochemical; settings: 15 μM
T2 construct: made in house
Description: GTPγS, purified GFP (RASGRP1, 180 nM) and GAP (RASA1, 180 nM) at 25° C. in the presence or absence of 15 μM KRA-533. The radioactivity remaining on the protein after intensive washing was quantified by liquid scintillation.
as §1

KRAS = assay: KRAS-GTP pull-down by Raf-1-RBD and Western blot in lung cancer cell lines; assay type: cell-based, human; settings: 48 h
Description: (§4) “0” means DMSO vehicle control. […] Expression levels of KRAS, pERK, active caspase 3, PARP cleavage, Beclin1, LC3-I and LC3-II in total lysate were analyzed by Western blot.
as §3, §2

[3] = test system: A549, H157, Calu-1 and H292 cells; assay: Western blot of pERK, apoptosis and autophagy markers in total lysate; assay type: cell-based, human; settings: 0, 5, 10, 15 μM, 48 h
Description: as §4, §2

GFP-tagged KRAS S17A = biological target: T3, GFP-tagged KRAS S17A (Homo sapiens, UniProt P01116, S17A); assay: Raf-1-RBD pull-down of exogenous GFP-tagged KRAS S17A in A549 cells; assay type: cell-based; settings: 15 μM, 48 h
T3 construct: expressed in transfected cells; host or cells: A549
Description: The GFP-tagged exogenous KRAS-GTP (GFP-KRAS-GTP) was analyzed by Western blot using anti-GFP antibody.
as §1

[4] = test system: A549, H157, Calu-1 and H292 cells; assay: Apoptosis by FACS analysis of Annexin V/PI staining; assay type: cell-based, human
Description: as §2

[5] = 0, 7.5, 15, and 30 mg/kg/day i.p. for 28 days

O=C(CBr)NCCCCc1ccc(C(=O)O)cc1 [KRA-533, 4-(4-(2-bromoacetamido)butyl)benzoic acid]
binding (thermal shift), AA (S17A/K117A) KRAS (KRAS S17A/K117A (AA)): failed to bind | melting temperature (Tm) / binding, KRAS G12C (KRAS G12C): Dose dependent increases in melting temperature (Tm) | percentage of GFP-LC3vac cells [1]: enhanced the percentage of GFP-LC3vac cells in a dose-dependent manner | cell proliferation (NSCLC cells; various NSCLC cells): suppression of cell proliferation | sensitivity of cell proliferation, KRAS mutant cells versus H292 (NSCLC cells; A549, H157, Calu-1 vs H292): more sensitive to KRA-533 than H292 cells without KRAS mutation | apoptosis and autophagy in tumor tissues (IHC active caspase-3, LC3-II) [2, 5]: induced apoptosis and autophagy in tumor tissues in a dose-dependent manner | tumor growth [2, 5]: suppressed tumor growth in a dose-dependent manner | blood cells (WBC, RBC and PLT), BUN and ALT/AST ([2]; 7.5˜30 mg/kg/d): in the normal range | body weight ([2]; 7.5˜30 mg/kg/d): no weight loss | tolerability ([2]; 7.5˜30 mg/kg/d): well tolerated without significant toxicity | histopathology of normal tissues (brain, heart, lung, liver, spleen, kidney and intestine) ([2]; 7.5˜30 mg/kg/day): no evidence of normal tissue toxicities | active KRAS in tumor tissues (Raf-1-RBD pull-down) ([2]; tumor tissue lysates after 28 days): accumulation of active KRAS in tumor tissues | KRAS activity (liquid scintillation), KRAS S17A (KRAS S17A): directly activated | KRAS activity, cell lines bearing KRAS mutation versus without (KRAS; 10 μM): enhanced KRAS activity to a greater extent in cell lines bearing KRAS mutation than in cell lines without KRAS mutation | KRAS activity (GTP-KRAS pulled down by Raf-1-RBD) (KRAS; 10 μM, human lung cancer cell lines with or without KRAS mutation): enhanced KRAS activity in most human lung cancer cell lines tested, except H292 | KRAS activity (KRAS-GTP), dose response (KRAS; A549, H157, Calu-1 and H292 cells, 0, 5, 10, 15 μM): enhanced KRAS activity in a dose-dependent manner | LC3-II [3]: dose-dependent increase of LC3-II | PARP cleavage [3]: increased | levels of pERK [3]: increased levels | p62 [3]: dose-dependent decrease of p62 | ratio of active caspase 3/procaspase 3 [3]: increased | activity of exogenous GFP-tagged S17A KRAS (GFP-KRAS-GTP) (GFP-tagged KRAS S17A): activated exogenous WT and S17A | apoptotic cell death (Annexin V/PI) ([4]; 0, 5, 10, 15 μM, 48 h): leading to apoptotic cell death | sensitivity to KRAS activation, induction of apoptosis and autophagy, KRAS mutant cells versus H292 ([4]; A549, H157 and Calu-1 vs H292, 48 h): significantly more sensitive than H292 cells without KRAS mutation
